Assay results published in patent publication US9463216B2 (priority 2012, dated 2016).

How the values were obtained:
recombinant LT (PA + LF) = recombinant LT (PA + LF) (Bacillus anthracis, UniProt P13423); design: species or system BALB/cJ mice; conditions: mouse, in vivo
lethal toxin (PA + LF) = lethal toxin (PA + LF) (Bacillus anthracis, UniProt P13423)
PA [1] = biological target: PA (Bacillus anthracis, UniProt P13423); assay type: binding, B. anthracis
PA [2] = assay type: biochemical, B. anthracis
[3] = test system: PA uptake by J774 macrophages, ANTXR2-expressing (CCHO) and ANTXR2-null (PR230) chinese hamster ovary cells; assay type: cell-based, chinese hamster (CHO cells)
[4] = test system: J774 macrophages and PR230 cells; assay type: cell-based, chinese hamster (PR230 cells)

Sequence of PA (Bacillus anthracis, UniProt P13423) (P13423 30-764 limits assumed): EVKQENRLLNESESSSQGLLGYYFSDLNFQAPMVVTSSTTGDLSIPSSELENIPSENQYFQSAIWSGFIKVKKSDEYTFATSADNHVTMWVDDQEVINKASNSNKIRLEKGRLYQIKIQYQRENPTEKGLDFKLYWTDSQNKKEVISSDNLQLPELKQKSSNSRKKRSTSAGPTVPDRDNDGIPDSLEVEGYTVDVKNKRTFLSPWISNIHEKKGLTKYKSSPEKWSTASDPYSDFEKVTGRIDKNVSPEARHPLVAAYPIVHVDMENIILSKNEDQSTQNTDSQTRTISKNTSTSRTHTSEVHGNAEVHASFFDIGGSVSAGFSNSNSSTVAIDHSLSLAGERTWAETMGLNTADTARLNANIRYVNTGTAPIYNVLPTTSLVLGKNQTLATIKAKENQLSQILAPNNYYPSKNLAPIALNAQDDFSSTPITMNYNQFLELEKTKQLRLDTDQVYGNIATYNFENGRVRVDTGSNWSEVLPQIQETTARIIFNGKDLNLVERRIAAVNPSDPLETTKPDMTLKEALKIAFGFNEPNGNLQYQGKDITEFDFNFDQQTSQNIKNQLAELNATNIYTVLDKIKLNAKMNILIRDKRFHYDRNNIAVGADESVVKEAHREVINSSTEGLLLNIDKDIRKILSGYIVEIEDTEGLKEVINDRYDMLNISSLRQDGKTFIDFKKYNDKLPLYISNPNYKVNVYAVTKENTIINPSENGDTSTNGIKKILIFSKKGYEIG
Sequence of lethal toxin (PA + LF) (P13423 30-764 limits assumed): as above
Sequence of recombinant LT (PA + LF) (P13423 30-764 limits assumed): as above

Row | Compound | protection of mice from LT (recombinant LT (PA + LF)) | form complexes with PA (PA [1]) | effect on PA-binding to ANTXR2 or LF, PA oligomerization, or channel formation in vitro (PA [2]) | effect on cell uptake of PA [3] | LT inhibitory activity of metal ion chelates (lethal toxin (PA + LF)) | inhibit LT-mediated cytolysis in bone marrow macrophage cells (lethal toxin (PA + LF)) | inhibition of PA oligomers (lethal toxin (PA + LF)) | further results
1 | N[C@@H](CCC(=O)O)C(=O)O [L-Glu, reference compound] | did not protect mice from LT | – | – | – | – | – | – | –
2 | Fe(III) [reference compound] | – | – | – | – | – | – | – | concentration at which Fe(III) alone may inhibit LT (lethal toxin (PA + LF)): 10 mM; inhibitory Fe(III) concentration relative to concentrations effective in the Fe(III) co-complexes of compounds 1, 2, and 3 (lethal toxin (PA + LF)): 10^3-10^4 fold; inhibitory activity of Fe(III) alone (lethal toxin (PA + LF)): did not possess inhibitory activity
3 | bovine serum albumin [reference compound] | did not protect mice from LT | – | – | – | – | – | – | –
4 | γ-DLPGA [Compound 1] | completely protected | can form complexes with PA | do not affect | prevent proper cell uptake | only the Fe(III) chelate had LT inhibitory activity | could inhibit | equally inhibited | affinity for PA, higher than compound 2 (PA [1]): 10 fold
5 | γ-DPGA [Compound 2] | completely protected | can form complexes with PA | do not affect | prevent proper cell uptake | only the Fe(III) chelate had LT inhibitory activity | could inhibit | equally inhibited | formation of co-complexes with PA after pretreatment with Cap D (PA [1]): prevents formation of co-complexes with PA; inhibitory activity after treatment with Cap D (recombinant LT (PA + LF)): abolished the inhibitory activity; stimulation of PA internalization after pretreatment with Cap D [3]: eliminates the stimulation of PA internalization; binding to J774 macrophages and PR230 cells [4]: equal affinity; binding to Pronase-treated PR230 cells [4]: significantly reduced
